Experiments:
α2-receptors = assay: ALPHA-2 binding, p-125Iodoclonidine, canine brain (frontal cortex) membranes; design: species or system dog
Description: Membranes of mongrel dogs were harvested from the canine frontal cortex and prepared as described for lung except that the final membrane protein concentration was adjusted to 0.5 mg/ml.
Nonspecific binding was determined in separate incubations in the presence of 10 μM phentolamine. The final concentration of p-iodoclonidine was 44-45 pM in competition studies and between 50 pM and 10 nM in saturation experiments. Bound and free […] were separated and the bound quantitated as described above for the ICYP assays.
All data were analyzed with the aid of microcomputer nonlinear curve fitting programs (PRISM 2.0, Graphpad Software, San Diego Calif.).
The receptors resident in each of the three membrane preparations were evaluated by standard saturation analysis following the addition of increasing concentrations of the appropriate radioligand.
The radio ligand added for subsequent α2-displacement assays was adjusted to evaluate only the high affinity receptor. Contributions from p-iodoclonidine binding to imidazoline receptors in the α2-displacement assay were evaluated with epinephrine.

[1] = test system: New Zealand white rabbits; assay: Pupil diameter / mydriasis after topical application to rabbit eye
Swiss-Webster mice = settings: mice pretreated with 0.01, 0.1 or 1.0 mg/kg triprolidine
Description: The mice were immediately placed in the activity testing chamber for a 2-h session. Doses of the test compound were selected from the ascending or descending time of the dose-effect curve determined from the compound-alone studies. Eight mice were tested for each triprolidine/sympathomimetic combination.
Time course data for each compound were considered in 2-way analyses of variance with dose as a between-group and time as a within-group factor. The dose-effect data were considered in 1-way analyses of variance, and planned individual comparisons were conduced between each dose and the saline control group. Interaction studies were considered in 2-way analyses of variance, with Pretreatment and Test dose as the factors.

[2] = drug 1% topical, drug treated eye (T), 0.5 hr
[3] = drug 1% topical, drug treated eye (T), 1 hr
[4] = drug 1% topical, drug treated eye (T), 3 hr
[5] = drug 1% topical, drug treated eye (T), 5 hr
[6] = drug 1% topical, drug treated eye (T), −0.5 hr (pre-treatment)
[7] = drug 1% topical, drug treated eye (T), −1 hr (pre-treatment)
[8] = drug 1% topical, untreated contralateral eye (U), 0.5 hr
[9] = drug 1% topical, untreated contralateral eye (U), 1 hr
[10] = drug 1% topical, untreated contralateral eye (U), 3 hr
[11] = drug 1% topical, untreated contralateral eye (U), 5 hr
[12] = drug 1% topical, untreated contralateral eye (U), −0.5 hr (pre-treatment)
[13] = drug 1% topical, untreated contralateral eye (U), −1 hr (pre-treatment), mean ± S.E.
[14] = drug 2% topical, drug treated eye (T), 0.5 hr
[15] = drug 2% topical, drug treated eye (T), 1 hr
[16] = drug 2% topical, drug treated eye (T), 3 hr
[17] = drug 2% topical, drug treated eye (T), 5 hr
[18] = drug 2% topical, drug treated eye (T), −0.5 hr (pre-treatment)
[19] = drug 2% topical, drug treated eye (T), −1 hr (pre-treatment)
[20] = drug 2% topical, untreated contralateral eye (U), 0.5 hr
[21] = drug 2% topical, untreated contralateral eye (U), 1 hr
[22] = drug 2% topical, untreated contralateral eye (U), 3 hr
[23] = drug 2% topical, untreated contralateral eye (U), 5 hr
[24] = drug 2% topical, untreated contralateral eye (U), −0.5 hr (pre-treatment)
[25] = drug 2% topical, untreated contralateral eye (U), −1 hr (pre-treatment)

Row | SMILES | Mydriatic Responses, TREATED EYE ([1]; 1% solution) | Mydriatic Responses, UNTREATED EYE ([1]; 1% solution) | Mydriatic Responses, TREATED EYE ([1]; 2% solution) | Mydriatic Responses, UNTREATED EYE ([1]; 2% solution) | Pupil Diameter [1, 2] [mm] | Pupil Diameter [1, 3] [mm] | Pupil Diameter [1, 4] [mm] | Pupil Diameter [1, 5] [mm] | Pupil Diameter [1, 6] [mm] | Pupil Diameter [1, 7] [mm] | Pupil Diameter [1, 8] [mm] | Pupil Diameter [1, 9] [mm] | Pupil Diameter [1, 10] [mm] | Pupil Diameter [1, 11] [mm] | Pupil Diameter [1, 12] [mm] | Pupil Diameter [1, 13] [mm] | Pupil Diameter [1, 14] [mm] | Pupil Diameter [1, 15] [mm] | Pupil Diameter [1, 16] [mm] | Pupil Diameter [1, 17] [mm] | other results
1 | CN[C@@H](C)[C@H](O)c1ccccc1 [(−)-ephedrine] | 0 | 0 | +++ (+++ >4 mm change) | +++ (+++ >4 mm change) | 6 ± 0.4 | 6 ± 0.4 | 6 ± 0.4 | 6 ± 0.4 | 6 ± 0.4 | 6 ± 0.4 | 6 ± 0.4 | 6 ± 0.4 | 6 ± 0.4 | 6 ± 0.4 | 6 ± 0.4 | 6 ± 0.4 | 9 ± 0.2 | 9 ± 0.2 | 9 ± 0.2 | 9 ± 0.2 | Ki (α2-receptors): […]; IC50 (α2-receptors; Table 4, no unit in table, IC50 defined in μM, read-out: Alpha-2 IC50): […]; Pupil Diameter [1, 18]: 5 ± 0.2 mm; Pupil Diameter [1, 19]: 5 ± 0.2 mm; Pupil Diameter [1, 20]: 9 ± 0.2 mm; Pupil Diameter [1, 21]: 9 ± 0.2 mm; Pupil Diameter [1, 22]: 9 ± 0.2 mm; Pupil Diameter [1, 23]: 9 ± 0.2 mm; Pupil Diameter [1, 24]: 5 ± 0.2 mm; Pupil Diameter [1, 25]: 5 ± 0.2 mm; mydriasis / effect on pupil diameter (in words) ([1]; topical, rabbit): had no effect on pupil diameter
2 | CNC[C@H](O)c1cccc(O)c1 [(−)-phenylephrine] | ++ (++ = 2-4 mm change) | 0 | +++ (+++ >4 mm change) | +++ (+++ >4 mm change) | 7 ± 0.4 | 9 ± 0.4 | 9 ± 0.4 | 9 ± 0.4 | 6 ± 0.4 | 6 ± 0.4 | 6 ± 0.4 | 6 ± 0.4 | 6 ± 0.4 | 6 ± 0.4 | 6 ± 0.4 | 6 ± 0.4 | 12 ± 0.2 | 12 ± 0.2 | 12 ± 0.2 | 12 ± 0.2 | modification of stimulant or depressant effects by triprolidine pretreatment (Swiss-Webster mice): did not show significant modification of stimulant or depressant effects; Pupil Diameter [1, 18]: 6 ± 0.2 mm; Pupil Diameter [1, 19]: 6 ± 0.2 mm; Pupil Diameter [1, 20]: 12 ± 0.2 mm; Pupil Diameter [1, 21]: 12 ± 0.2 mm; Pupil Diameter [1, 22]: 12 ± 0.2 mm; Pupil Diameter [1, 23]: 12 ± 0.2 mm; Pupil Diameter [1, 24]: 6 ± 0.2 mm; Pupil Diameter [1, 25]: 6 ± 0.2 mm
